In ChEMBL document CHEMBL1125521, “Oxygen isosteric derivatives of 3-(3-hydroxyphenyl)-N-n-propylpiperidine” (J Med Chem, 1992):
Activity calls are given as the source filed them. No cut-off for these calls is given here.

What was measured:
[1] = biological target: D(2) dopamine receptor (Rattus norvegicus) (UniProt P61169); assay: Displacement of [3H]spiroperidol from dopamine receptor D2 binding sites of rat striatal membranes; inactive; assay type: cell membranes; details: Membrane
[2] = biological target: Serotonin 1 (5-HT1) receptor (Rattus norvegicus, UniProt P28564+P30940+P19327+P28565); assay: Compound was evaluated for the inhibition of [3H]5-HT (concentration of 12 nM) specific binding to rat hippocampus; assay type: tissue-based
[3] = biological target: D(2) dopamine receptor (Rattus norvegicus, UniProt P61169); assay: Ability to displace [3H]spiroperidol, from dopamine receptor D2 specific binding sites of rat striatal membranes; parameters: species or system Striatum, Membrane
Sequence of D(2) dopamine receptor (P61169 whole entry): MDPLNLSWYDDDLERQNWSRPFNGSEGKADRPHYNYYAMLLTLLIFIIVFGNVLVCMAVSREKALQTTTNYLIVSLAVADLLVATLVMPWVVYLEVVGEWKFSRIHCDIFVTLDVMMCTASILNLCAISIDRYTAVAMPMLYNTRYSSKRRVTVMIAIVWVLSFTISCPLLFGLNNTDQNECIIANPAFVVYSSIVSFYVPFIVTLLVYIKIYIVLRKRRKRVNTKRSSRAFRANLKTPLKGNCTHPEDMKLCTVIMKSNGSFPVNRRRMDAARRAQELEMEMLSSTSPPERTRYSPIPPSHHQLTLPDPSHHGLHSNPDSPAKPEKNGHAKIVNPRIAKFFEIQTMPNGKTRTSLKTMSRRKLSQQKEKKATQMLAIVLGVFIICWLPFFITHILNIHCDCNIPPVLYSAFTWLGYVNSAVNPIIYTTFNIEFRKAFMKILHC

Sequence of D(2) dopamine receptor (Rattus norvegicus) (P61169 whole entry): as above

| Compound | Activity [1] | IC50 [2] [µM] | IC50 [3] [µM] |
| --- | --- | --- | --- |
| CCCN1CCOC(c2ccsc2)C1 (stereo not given) | inactive | – | – |
| CCCN1CCOC(c2ccccc2Cl)C1 (stereo not given) | inactive | 3 | – |
| CCCN1CCOC(c2cccc(O)c2)C1 (stereo not given) | inactive | – | – |
| CCCN1CCOC(c2cccc([N+](=O)[O-])c2)C1 (stereo not given) | inactive | – | – |
| CCCN1CCOC(c2ccccc2OC)C1 (stereo not given) | inactive | 1 | – |
| CCCN1CCOC(c2cccc(Cl)c2)C1 (stereo not given) | inactive | 5 | – |
| CCCN1CCOC(c2cccc(OC)c2)C1 (stereo not given) | inactive | 1 | – |
| CCCN1CCOC(c2ccccc2O)C1 (stereo not given) | inactive | – | – |
| CCCN1CCCC(c2ccccc2OC)C1 (stereo not given) | – | – | 8 |
| CCCN1CCOC(c2cccs2)C1 (stereo not given) | inactive | – | – |
| CCCN1CCCC(c2ccccc2O)C1 (stereo not given) | – | – | 7 |
